# Assay results from patent publication US20120295838A1, “Selective poly-substituted glycine antibiotics and related compositions” (priority 2008, published 2012).
# Numbered stars: 1 amine (or outer) side, 2 acyl side, 3 side chain; on linkers, the order of the positions; unused ones are H or OH. Square brackets hold non-standard residues; d marks the D form. Ends that are not written are not given here. Peptide text beside a SMILES is read from it. Gly(N-CH2CH2-imidazol-4-yl) = O=C(O)CNCCc1c[nH]cn1; X1 = CC(C)[C@H](C)N(CC(=O)[*:2])[*:1]; Nspe = C[C@H](NCC(=O)O)c1ccccc1; Nlys = NCCCCNCC(=O)O
# Columns and labels:
# [1] = tested on: A549 lung epithelial cells; assay: MTS assay, A549 cells
# Description: The biocompatibility of selected oligomers with A549 lung epithelial cells was evaluated using the MTS [3-(4,5-dimethylthiazol-2-yl)-5-(3-carboxymethoxyphenyl)-2-(4-sulfophenyl)-2H-tetrazolium] assay.
# MTS Assays. A549 carcinoma-derived lung epithelial cells (ATTC CCL-185) were cultured in Ham's F12K media (ATTC, Manassas, Va.). A peptoid solution plate (100 μL/well) was prepared by serial dilution of aqueous peptoid stocks in media. Peptoid solutions were transferred onto a 96-well plate of day-old cell monolayers containing 100 μL/well media with 5000 cells/well. MTS reagent (Promega Corporation, Madison, Wis.) (40 μL/well) was added to each well and the plate was incubated at 37° C. for 3 h, after which absorbance at 490 nm was determined. Percent inhibition was determined as [1−(A−Atest blank)/(Acontrol−Ablank)]×100, where A is the absorbance of the test well and Acontrol the average absorbance of wells with cells exposed to media and MTS (no peptoid). Atest blank (media, MTS, and peptoid) and Ablank (media and MTS) were background absorbances measured in the absence of cells. The average of six replicates are reported, and error bars show one standard deviation.
# MTS assay, NIH 3T3 cells = assay type: cell-based, mouse; settings: mouse, NIH 3T3 fibroblast cells
# Summary of the method: (§1)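 NIH/3T3 cells seeded at 5,000 per well, grown a day in DMEM with 10% FBS, then washed and exposed to serially diluted peptoid in HBSS together with MTS reagent. Absorbance at 490 nm read after 3 hours at 37 °C as a measure of metabolic activity; mean of six replicates.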
# [2] = tested on: NIH 3T3 mouse fibroblast cells; assay: MTS assay, NIH 3T3 cells; assay type: cell-based; settings: mouse, 3 h
# Summary of the method: as §1
compound,measurement,setting,value
"C[C@@H](c1ccccc1)N(CC(=O)N(CCc1cnc[nH]1)CC(=O)N(CCCCN)CC(=O)N(CC(=O)N(CC(=O)N(CCCCN)CC(=O)N(CC(=O)N(CCc1cnc[nH]1)CC(N)=O)[C@@H](C)c1ccccc1)[C@@H](C)c1ccccc1)[C@@H](C)c1ccccc1)C(=O)CN(CCCCN)C(=O)CN(C(=O)CN(C(=O)CNCCCCN)[C@@H](C)c1ccccc1)[C@@H](C)c1ccccc1 [1-Nhis6,12, H-(Nlys-Nspe-Nspe-Nlys-Nspe-Nhis)2-NH2] (H-[Nlys][Nspe][Nspe][Nlys][Nspe][Gly(N-CH2CH2-imidazol-4-yl)][Nlys][Nspe][Nspe][Nlys][Nspe][Gly(N-CH2CH2-imidazol-4-yl)]-NH2)",ID10 relative to that of pexiganan,[1],20 times
"CC(C)[C@H](C)N(CC(=O)N(CC(=O)N(CCCCN)CC(=O)N(CC(=O)N(CC(=O)N(CCCCN)CC(=O)N(CC(=O)N(CC(=O)N(CCCCN)CC(=O)N(CC(=O)N(CC(N)=O)[C@@H](C)c1ccccc1)[C@@H](C)C(C)C)[C@@H](C)c1ccccc1)[C@@H](C)C(C)C)[C@@H](C)c1ccccc1)[C@@H](C)C(C)C)[C@@H](C)c1ccccc1)C(=O)CNCCCCN [1-Nsdp2,5,8,11, H-(Nlys-Nsdp-Nspe)4-NH2] (H-[Nlys][X1][Nspe][Nlys][X1][Nspe][Nlys][X1][Nspe][Nlys][X1][Nspe]-NH2)",CC50 at 3 h,"MTS assay, NIH 3T3 cells",20 µM
"GIGKFLKKAKKFGKAFVKILKK-NH2 [pexiganan, reference compound]",ID50,[2],9 µM
